Consider two compounds from US9880154B2, “Method for screening drugs and animal model for same” (priority 2014, dated 2018).

Data set [1] relates to Sarcocystis neurona. Nature of the data set: Production of persistent parasitemia in a horse challenged with S. neurona (autologous leukocyte model). The data set is classed as in vivo. The procedure: In a first preferred embodiment a parasite population was isolated from horses as described in an experimental model (Experimental infection of horses with culture derived Sarcocystis neurnoa merozoites as a model for equine protozoal myeloencephalitis, 2004) and used to infect a yearling thoroughbred filly. The challenge (6000 organisms/day) was used daily for 10 days. Concurrent with the challenge infection the filly was administered 1 mg/kg levamisole HCl orally for 21 days. […] Daily blood samples were taken and 5 microliters of blood were used to prepare thin layer smears followed by staining with Geimsa. Ten fields were counted to determine the presence of S. neurona. A hemocytometer was used to determine the number of parasites per ml of peripheral blood. […] At the end of fourteen days the filly was treated with decoquinate orally at 0.5 mg/kg for 10 days.

Data set [2] has as its system S. neurona. Conditions: 1 mg/kg. The procedure:
Field cases of idiopathic encephalitis associated with EPM due to S. neurona were identified by veterinary clinical examination. […] Signs were assessed by the Field Veterinarian by a neurological examination of gait and scored on a scale of 1-5. Attributable data was obtained from 27 Field Veterinarians. Thirty-three animals were included into the study, missing data from 21 horses prevented inclusion of these 21 animals into the study analysis. In the included data set, one Field Veterinarian submitted data for 6 animals, one Field Veterinarian submitted data from two animals, and 25 veterinarians submitted data for one animal.
Horses were evaluated for a change in gait score by subtracting the gait score after treatment from the gait score before treatment.

For data set [3] the following is noted: horses, 5 mg/kg (2800 mg) orally, at one hour; reportedly; cited from earlier work.
[4] abbreviates: Day 30, levamisole HCl 1 mg/kg orally 21 days, decoquinate 0.5 mg/kg orally 10 days from end of day 14.
[5] abbreviates: Day 14, 1 mg/kg orally for 21 days concurrent with challenge.

Structures can show the parent of a compound that is named as a salt.

With `CCCCCCCCCCOc1cc2c(O)c(C(=O)OCC)cnc2cc1OCC` [decoquinate], the “visible parasites in the blood” value in data set [1] (Day 30, decoquinate orally 0.5 mg/kg for 10 days from end of day 14, after levamisole HCl 1 mg/kg for 21 days) was “no visible parasites in the blood”. Moreover, in data set [1] (setting [4]), the “clinical signs of disease” value is reported as “no clinical signs of disease”.
As to `c1ccc([C@H]2CN3CCSC3=N2)cc1` [levamisole HCl], the parasitemia entry in data set [1] (Day 10, in the serum, 1 mg/kg orally for 21 days concurrent with challenge) is “one million”; in data set [1] (setting [5]), “one million”. The “clinical signs of disease” value was “no clinical signs” in data set [1] (Day 10, yearling filly, challenge 6000 organisms/day for 10 days, 1 mg/kg orally for 21 days); “no clinical signs of disease” in data set [1] (setting [5]); “no clinical signs of disease” in data set [1] (setting [4]). The “animals with gait score worse or not changed after treatment” value in data set [2] (33 horses) came to 18%. For the same compound, in data set [2] (33 horses with signs of EPM not resolved with conventional treatment), the “horses with gait score improved by at least one grade after treatment” value is given as 82%. The plasma level in data set [3] is 485 ng/mL.
